US8034377B2, “DHA esters and use thereof in treatment and prevention of cardiovascular disease” (Pierre Fabre Medicament, priority 2006, dated 2011)
Like-named read-outs stand apart in the source and are kept apart here.

Molecular target: T1, human Kv 1.5 channel (hKv 1.5) (Homo sapiens, UniProt P22460)
T1 construct: expressed in transfected cells
Experiment: Ultrarapid potassium current (IKur), whole-cell patch-clamp in HEK 293-hKv 1.5 cells
Assay type: cell-based
Description: The cardiac action potential is the basic electrical unit of excitable cardiac cells and represents the activity of several types of ion channels responsible for the various phases of the action potential. Different types of action potentials correspond to different cardiac regions, thus allowing sequential and coordinated activity in these regions. For this reason, Kv 1.5 potassium channels, coded by the KCNA5 gene, are expressed only in auricle tissue and are responsible for the ultrarapid potassium current (IKur) which acts in the repolarization of the auricular action potential. This highly localized expression of Kv 1.5 is in fact a target of choice in the treatment of auricular fibrillation, a pathology in which changes in auricular action potentials are observed.
Thus, the effects of DHA and EPA on IKur were studied. For this purpose, the human isoform of the Kv 1.5 channel (hKv 1.5) was transfected in a stable manner in HEK 293 (human embryonic kidney) cells and the current resulting from the activity of these channels was studied using a whole-cell patch-clamp technique.
HEK 293-hKv 1.5 cells are grown under standard conditions (37° C., incubator at […] and 5% CO2) in Falcon dishes up to 80% confluence. They are then removed and cultured in 35 mm petri dishes containing the following culture medium: DMEM (Invitrogen); 10% fetal bovine serum (Invitrogen); a mixture of 100 U/ml penicillin, 100 μg/ml streptomycin and 0.25 mg/ml glutamine (Invitrogen); and 1.25 mg/ml of Geneticin® as a selective antibiotic.
IKur is studied using the whole-cell patch-clamp technique at ambient temperature (19-22° C.). The pipette medium contains: 125 mM K-aspartate, 20 mM KCl, 10 mM EGTA, 5 mM HEPES, 5 mM Mg-ATP, 1 mM MgCl2, pH 7.3 (KOH). The extracellular medium contains: 140 mM NaCl, 20 mM HEPES, 5 mM D(+)-glucose, 5 mM KCl, 2 mM CaCl2, 1 mM MgCl2, pH 7.4 (NaOH).
IKur is induced every 15 seconds by 300 ms, +60 mV depolarizing pulses from a −80 mV holding potential, followed by −50 mV repolarization. The amplitude of the current peak is established from the maximum current obtained during the first 100 ms of the depolarizing pulse. The amplitude of the current at the end of the pulse is determined during the last 20 ms of the depolarizing pulse.
DHA and EPA are supplied by Sigma. Stock solutions (10 mM) are prepared in ethanol and the final concentration of solvent is 0.25%.

T1 sequence (P22460 whole entry): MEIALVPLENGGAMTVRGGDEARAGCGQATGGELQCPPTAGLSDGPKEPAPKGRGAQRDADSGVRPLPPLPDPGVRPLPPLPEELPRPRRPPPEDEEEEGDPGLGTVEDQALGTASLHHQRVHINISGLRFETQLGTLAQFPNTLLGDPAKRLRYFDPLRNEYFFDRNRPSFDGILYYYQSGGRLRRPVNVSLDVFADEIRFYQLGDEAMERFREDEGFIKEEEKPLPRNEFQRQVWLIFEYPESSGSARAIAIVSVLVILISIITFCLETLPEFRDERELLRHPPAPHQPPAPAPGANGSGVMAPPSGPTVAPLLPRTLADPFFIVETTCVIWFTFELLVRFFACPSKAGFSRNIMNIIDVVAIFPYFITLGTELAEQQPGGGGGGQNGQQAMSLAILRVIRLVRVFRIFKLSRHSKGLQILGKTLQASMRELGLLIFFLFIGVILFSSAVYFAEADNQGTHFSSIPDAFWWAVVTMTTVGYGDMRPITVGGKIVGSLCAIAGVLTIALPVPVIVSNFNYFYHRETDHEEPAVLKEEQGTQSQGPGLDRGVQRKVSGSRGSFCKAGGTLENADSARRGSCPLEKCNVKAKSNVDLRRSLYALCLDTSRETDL

SMILES	Percent inhibition of Peak IKur, Mean (1 μM, HEK 293-hKv 1.5, +60 mV pulse, max current in first 100 ms)	Percent inhibition of End of pulse IKur, Mean (1 μM, HEK 293-hKv 1.5, last 20 ms of 300 ms depolarizing pulse)	Percent inhibition of Peak IKur, Mean (3.2 μM, HEK 293-hKv 1.5, +60 mV pulse, max current in first 100 ms)	Percent inhibition of End of pulse IKur, Mean (3.2 μM, HEK 293-hKv 1.5, last 20 ms of 300 ms depolarizing pulse)	Percent inhibition of Peak IKur, Mean (10 μM, HEK 293-hKv 1.5, +60 mV pulse, max current in first 100 ms)	Percent inhibition of End of pulse IKur, Mean (10 μM, HEK 293-hKv 1.5, last 20 ms of 300 ms depolarizing pulse)	Percent inhibition of Peak IKur, Mean (25 μM, HEK 293-hKv 1.5, +60 mV pulse, max current in first 100 ms)	Percent inhibition of End of pulse IKur, Mean (25 μM, HEK 293-hKv 1.5, last 20 ms of 300 ms depolarizing pulse)	inhibition at 1 µM (1 μM, HEK 293-hKv 1.5, +60 mV pulse, max current in first 100 ms, read-out: Percent inhibition of Peak IKur, Mean)	inhibition at 1 µM (1 μM, HEK 293-hKv 1.5, last 20 ms of 300 ms depolarizing pulse, read-out: Percent inhibition of End of pulse IKur, Mean)	inhibition at 3.2 µM (3.2 μM, HEK 293-hKv 1.5, +60 mV pulse, max current in first 100 ms, read-out: Percent inhibition of Peak IKur, Mean)	inhibition at 3.2 µM (3.2 μM, HEK 293-hKv 1.5, last 20 ms of 300 ms depolarizing pulse, read-out: Percent inhibition of End of pulse IKur, Mean)	inhibition at 5.6 µM (HEK 293-hKv 1.5, +60 mV pulse, max current in first 100 ms, read-out: Percent inhibition of Peak IKur, Mean)	inhibition at 5.6 µM (HEK 293-hKv 1.5, last 20 ms of 300 ms depolarizing pulse, read-out: Percent inhibition of End of pulse IKur, Mean)	inhibition at 10 µM (10 μM, HEK 293-hKv 1.5, +60 mV pulse, max current in first 100 ms, read-out: Percent inhibition of Peak IKur, Mean)	inhibition at 10 µM (10 μM, HEK 293-hKv 1.5, last 20 ms of 300 ms depolarizing pulse, read-out: Percent inhibition of End of pulse IKur, Mean)	inhibition at 25 µM (25 μM, HEK 293-hKv 1.5, +60 mV pulse, max current in first 100 ms, read-out: Percent inhibition of Peak IKur, Mean)	inhibition at 25 µM (25 μM, HEK 293-hKv 1.5, last 20 ms of 300 ms depolarizing pulse, read-out: Percent inhibition of End of pulse IKur, Mean)
CC/C=C\C/C=C\C/C=C\C/C=C\C/C=C\CCCC(=O)O [EPA]	14.6%	14.9%	16.1%	19.9%	17.5±6.4%	36.6%	5.4%	61.6±7.3%										
CC/C=C\C/C=C\C/C=C\C/C=C\C/C=C\C/C=C\CCC(=O)O [DHA, docosahexaenoic acid]									8.2%	10.1%	10.9%	14.5%	15.4%	33.7%	22.6%	78%	58.1 ± 13.6%	86.5 ± 3.4%
